Columns and labels:
[1] = test system: Ramos cells; experiment: Cytotoxicity in Ramos cells; format: cell-based; settings: Homo sapiens, read-out: Ramos cell EC50
Procedure: (§1) Compounds in Example 4 above were tested for activity against F1F0-ATPase by measuring ATP synthesis. In addition, the compounds were assessed for cytotoxicity in Ramos cells. Inhibition of ATP synthesis by the F1F0-ATPase and cytotoxicity in Ramos cells were measured according to the procedures described in K. M. Johnson et al. Chemistry & Biology 2005, 12, 485-496.

[2] = molecular target: T1, F1F0-ATPase (Bos taurus, UniProt P13621); experiment: Inhibition of ATP synthesis by the F1F0-ATPase; format: biochemical
T1 construct: from tissue
Procedure: as §1

Row | IC50 [2] | Compound | EC50 [1]
1 | < 10 µM | CCOC(=O)N[C@H]1CC[C@@H](N/C(=N\C(=O)c2ccc(F)c(F)c2)Nc2cc(F)cc(Cl)c2)CC1 [Compound 85] | < 10 µM
2 | < 10 µM | CCNC(=O)[C@H]1CC[C@@H](N/C(=N\C(=O)c2ccc(F)c(F)c2)Nc2cc(F)cc(Cl)c2)CC1 [Compound 89] | < 10 µM
3 | < 10 µM | CS(=O)(=O)N[C@H]1CC[C@H](N/C(=N/C(=O)c2ccc(F)c(F)c2)Nc2cc(F)cc(Cl)c2)CC1 [Compound 96] | < 10 µM
4 | > 10 µM | CS(=O)(=O)N[C@H]1CC[C@H](N/C(=N/C(=O)c2ccc(F)c(F)c2)Nc2cccc(Cl)c2)CC1 [Compound 97] | < 10 µM
5 | > 10 µM | O=C(/N=C(/Nc1cc(F)cc(Cl)c1)N[C@H]1CC[C@@H](C(=O)O)CC1)c1ccc(F)c(F)c1 [Compound 99] | > 10 µM
6 | < 10 µM | CC(=O)N[C@H]1CC[C@H](N/C(=N\C(=O)c2ccc(F)c(F)c2)Nc2cc(F)cc(Cl)c2)CC1 [Compound 100] | < 10 µM
7 | < 10 µM | O=C(/N=C(/Nc1cc(F)cc(Cl)c1)N[C@H]1CC[C@H](NC(=O)C2CC2)CC1)c1ccc(F)c(F)c1 [Compound 101] | < 10 µM
8 | < 10 µM | CC(C)(C)C(=O)N[C@H]1CC[C@H](N/C(=N\C(=O)c2ccc(F)c(F)c2)Nc2cc(F)cc(Cl)c2)CC1 [Compound 102] | < 10 µM
9 | < 10 µM | O=C(/N=C(/Nc1cc(F)cc(Cl)c1)N[C@H]1CC[C@H](Nc2cnccn2)CC1)c1ccc(F)c(F)c1 [Compound 117] | < 10 µM
10 | < 10 µM | O=C(/N=C(/Nc1cc(F)cc(Cl)c1)N[C@H]1CC[C@H](Nc2ncccn2)CC1)c1ccc(Cl)cc1 [Compound 118] | < 10 µM
11 | < 10 µM | O=C(/N=C(/Nc1cc(F)cc(Cl)c1)N[C@H]1CC[C@@H](Nc2ncccn2)CC1)c1ccc(F)c(F)c1 [Compound 120] | < 10 µM
12 | < 10 µM | O=C(/N=C(/Nc1cc(F)cc(Cl)c1)NC1CCCC(Nc2ncccn2)C1)c1ccc(F)c(F)c1 (stereo not drawn) [Compound 124] | < 10 µM
13 | < 10 µM | CCOC(=O)N[C@H]1CCC[C@@H](N/C(=N\C(=O)c2ccc(F)c(F)c2)Nc2cc(F)cc(Cl)c2)C1 [Compound 125] | < 10 µM
14 | < 10 µM | CCOC(=O)N[C@@H]1CCC[C@@H](N/C(=N\C(=O)c2ccc(F)c(F)c2)Nc2cc(F)cc(Cl)c2)C1 [Compound 126] | < 10 µM
15 | < 10 µM | O=C(/N=C(/Nc1cc(F)cc(Cl)c1)N[C@H]1CCCC[C@H]1O)c1ccc(F)c(F)c1 [Compound 128] | < 10 µM
16 | < 10 µM | O=C(/N=C(/Nc1cc(F)cc(Cl)c1)N[C@H]1CCCC[C@@H]1O)c1ccc(F)c(F)c1 [Compound 129] | < 10 µM
17 | < 10 µM | O=C(/N=C(/Nc1cc(F)cc(Cl)c1)N[C@H]1CC[C@H](NC(=O)C(F)(F)F)CC1)c1ccc(F)c(F)c1 [Compound 130] | < 10 µM
18 | < 10 µM | Cc1cc(C(=O)N[C@H]2CC[C@H](N/C(=N\C(=O)c3ccc(F)c(F)c3)Nc3cccc(Cl)c3)CC2)ccn1 [Compound 132] | < 10 µM
19 | < 10 µM | O=C(/N=C(/Nc1cccc(Cl)c1)N[C@H]1CC[C@H](NC(=O)c2cccs2)CC1)c1ccc(F)c(F)c1 [Compound 133] | < 10 µM
20 | < 10 µM | CN(C)C(=O)N[C@H]1CC[C@H](N/C(=N\C(=O)c2ccc(F)c(F)c2)Nc2cc(F)cc(Cl)c2)CC1 [Compound 135] | < 10 µM
21 | < 10 µM | O=C(/N=C(/Nc1cc(F)cc(Cl)c1)N[C@H]1CC[C@H](NC(=O)N2CCOCC2)CC1)c1ccc(F)c(F)c1 [Compound 136] | < 10 µM
22 | < 10 µM | O=C(/N=C(/Nc1cc(F)cc(Cl)c1)N[C@H]1CC[C@H](NC(=O)N2CCCC2)CC1)c1ccc(F)c(F)c1 [Compound 137] | < 10 µM
23 | < 10 µM | O=C(/N=C(/Nc1cc(F)cc(Cl)c1)N[C@H]1CC[C@H](NC(=O)c2cccs2)CC1)c1ccc(F)c(F)c1 [Compound 139] | < 10 µM
24 | < 10 µM | O=C(/N=C(/Nc1cc(F)cc(Cl)c1)N[C@H]1CC[C@H](NC(=O)c2ccccc2)CC1)c1ccc(F)c(F)c1 [Compound 140] | < 10 µM

Second part, the molecule before the results:

Row | Compound | IC50 [2] | EC50 [1]
25 | O=C(/N=C(/Nc1cccc(Cl)c1F)N[C@H]1CC[C@H](Nc2ncccn2)CC1)c1ccc(F)c(F)c1 [Compound 84] | < 10 µM | > 10 µM
26 | CC1CCC(N/C(=N/C(=O)c2ccc(F)c(F)c2)N[C@H]2CC[C@H](Nc3ncccn3)CC2)CC1 (stereo partly drawn) [Compound 86] | < 10 µM | < 10 µM
27 | O=C(/N=C(/NC1CCCCC1)N[C@H]1CC[C@H](Nc2ncccn2)CC1)c1ccc(F)c(F)c1 [Compound 87] | < 10 µM | < 10 µM
28 | O=C(/N=C(/Nc1cccc(Cl)c1)N[C@H]1CC[C@H](Nc2ccccn2)CC1)c1ccc(F)c(F)c1 [Compound 88] | < 10 µM | < 10 µM
29 | O=C(/N=C(/NCc1ccccc1Cl)N[C@H]1CC[C@H](Nc2ncccn2)CC1)c1ccc(F)c(F)c1 [Compound 90] | < 10 µM | < 10 µM
30 | O=C(/N=C(/NCc1ccc(Cl)cc1)N[C@H]1CC[C@H](Nc2ncccn2)CC1)c1ccc(F)c(F)c1 [Compound 91] | < 10 µM | < 10 µM
31 | O=C(/N=C(/NCc1ccccc1C(F)(F)F)N[C@H]1CC[C@H](Nc2ncccn2)CC1)c1ccc(F)c(F)c1 [Compound 92] | < 10 µM | < 10 µM
32 | O=C(/N=C(/NCc1cccc(C(F)(F)F)c1)N[C@H]1CC[C@H](Nc2ncccn2)CC1)c1ccc(F)c(F)c1 [Compound 93] | < 10 µM | < 10 µM
33 | O=C(/N=C(/Nc1cccc(C(F)(F)F)c1)N[C@H]1CC[C@H](Nc2ncccn2)CC1)c1ccc(F)c(F)c1 [Compound 94] | < 10 µM | < 10 µM
34 | CCOC(=O)N[C@H]1CC[C@H](N/C(=N\C(=O)c2ccc(F)c(F)c2)NC2CCC(F)(F)CC2)CC1 [Compound 95] | < 10 µM | > 10 µM
35 | CCOC(=O)N[C@H]1CC[C@H](N/C(=N/C(=O)c2ccc(F)c(F)c2)Nc2ccc(F)cc2C2CC2)CC1 [Compound 98] | < 10 µM | < 10 µM
36 | CCOC(=O)N[C@H]1CC[C@H](N/C(=N\C(=O)c2ccc(F)c(F)c2)NC(C)(C)C)CC1 [Compound 103] | > 10 µM | > 10 µM
37 | CCOC(=O)N[C@H]1CC[C@H](N/C(=N\C(=O)c2ccc(F)c(F)c2)NC2CC2)CC1 [Compound 104] | > 10 µM | > 10 µM
38 | CCOC(=O)N[C@H]1CC[C@H](N/C(=N\C(=O)c2ccc(F)c(F)c2)NC(C)(C)C(F)(F)F)CC1 [Compound 105] | > 10 µM | > 10 µM
39 | CCOC(=O)N[C@H]1CC[C@H](N/C(=N\C(=O)c2ccc(F)c(F)c2)NC2(C)CCC2)CC1 [Compound 106] | > 10 µM | > 10 µM
40 | CCOC(=O)N[C@H]1CC[C@H](N/C(=N\C(=O)c2ccc(F)c(F)c2)NCC(F)(F)F)CC1 [Compound 107] | > 10 µM | > 10 µM
41 | CC(C)(C)N/C(=N/C(=O)c1ccc(F)c(F)c1)N[C@H]1CC[C@H](O)CC1 [Compound 108] | > 10 µM | > 10 µM

Row | Compound | IC50 [2] | EC50 [1]
42 | CCOC(=O)N[C@H]1CC[C@H](N/C(=N\C(=O)c2ccc(F)c(F)c2)NC2CCCC2)CC1 [Compound 109] | > 10 µM | > 10 µM
43 | CCOC(=O)N[C@H]1CC[C@H](N/C(=N\C(=O)c2ccc(C(F)(F)F)cc2)NC2CCCC2)CC1 [Compound 110] | < 10 µM | > 10 µM
44 | CCOC(=O)N[C@H]1CC[C@H](N/C(=N\C(=O)c2ccc(C(F)(F)F)cc2)NC(C)(C)C)CC1 [Compound 111] | < 10 µM | > 10 µM
45 | CC(C)(C)N/C(=N/C(=O)c1ccc(C(F)(F)F)cc1)N[C@H]1CC[C@H](Nc2ncccn2)CC1 [Compound 112] | > 10 µM | > 10 µM
46 | CC1(N/C(=N/C(=O)c2ccc(C(F)(F)F)cc2)N[C@H]2CC[C@H](Nc3ncccn3)CC2)CCC1 [Compound 113] | < 10 µM | < 10 µM
47 | O=C(/N=C(/NC1CCCC1)N[C@H]1CC[C@H](Nc2ncccn2)CC1)c1ccc(C(F)(F)F)cc1 [Compound 114] | < 10 µM | < 10 µM
48 | O=C(/N=C(/Nc1cc(F)cc(Cl)c1)N[C@H]1CC[C@H](Nc2ncccn2)CC1)c1ccc(C(F)(F)F)cc1 [Compound 115] | < 10 µM | < 10 µM
49 | O=C(/N=C(/Nc1cccc(C(F)(F)F)c1)N[C@H]1CC[C@H](Nc2ncccn2)CC1)c1ccc(C(F)(F)F)cc1 [Compound 116] | < 10 µM | < 10 µM
50 | O=C(/N=C(/Nc1cccc(C(F)(F)F)c1)N[C@H]1CC[C@H](Nc2ncccn2)CC1)c1ccc(Cl)cc1 [Compound 119] | < 10 µM | < 10 µM
51 | CC1(N/C(=N/C(=O)c2ccc(C(F)(F)F)cc2)N[C@H]2CC[C@H](Nc3ncccn3)CC2)CCCC1 [Compound 121] | < 10 µM | < 10 µM
52 | CC1(N/C(=N/C(=O)c2ccc(Cl)cc2)N[C@H]2CC[C@H](Nc3ncccn3)CC2)CCCC1 [Compound 122] | < 10 µM | < 10 µM
53 | O=C(/N=C(/Nc1cc(F)cc(Cl)c1)N[C@H]1CCCC[C@H]1O)c1ccc(C(F)(F)F)cc1 [Compound 123] | < 10 µM | < 10 µM
54 | O=C(/N=C(/Nc1cccc(Cl)c1)N[C@H]1CC[C@H](NC(=O)c2cnccn2)CC1)c1ccc(F)c(F)c1 [Compound 131] | < 10 µM | < 10 µM
55 | O=C(/N=C(/Nc1cccc(Cl)c1)N[C@H]1CC[C@H](NC(=O)c2ccccc2)CC1)c1ccc(F)c(F)c1 [Compound 134] | < 10 µM | < 10 µM
56 | CC(C)(C)CN/C(=N/C(=O)c1ccc(F)c(F)c1)N[C@H]1CC[C@H](Nc2ncccn2)CC1 [Compound 138] | < 10 µM | < 10 µM
57 | CC(C)(C)CN/C(=N/C(=O)c1ccc(F)c(F)c1)N[C@H]1CC[C@H](NC(=O)c2cccs2)CC1 [Compound 141] | < 10 µM | < 10 µM
